Columns and labels:
[1] = Chlorine dioxide retention in liquid treatment solution, curtain application method; assay type: physicochemical; conditions: for Average ClO2 loss in ppm (±STDEV): location A minus location D; for Average ClO2 concentration in ppm (±STDEV): curtain, ambient 65-70 °F
From the text: (§1) In this example, two methods for applying a liquid chlorine dioxide treatment solution were compared with a chlorine dioxide treatment solution having the same volume and initial chlorine dioxide concentration, and using a system with the same delivery rate. One method was a curtain delivery method and the other method was a low-pressure spray method.
(§2) For both the methods a 330-gallon tote was used as the source fluid reservoir. The tote was filled with about 75 gallons of fresh water and also contained submersible sump-pump that provided the fluid flow to the system. A 6.6 gallon per minute (GPM) rotameter was in line between the pump and the chlorine dioxide delivery system that delivered a concentrated solution of chlorine dioxide (˜1700 ppm) so as to make a liquid chlorine dioxide treatment solution containing an initial concentration (approximately 5 ppm) of chlorine dioxide. The delivery system sat over an aluminum sheet on a slight gradient, to provide a homogenous flow pathway of the treatment solution. The aluminum sheet allowed the treatment fluid to cascade back into the tote for recirculation. During experimentation, the rotameter was set to allow for approximately 4 GPM ([…]) of constant flow, achieved by slight pinching of a ball valve in line and downstream of the rotameter. The treatment solution was circulated through the system for a few minutes and if needed, additional concentrated solution was added to achieve the initial concentration (approximately 5 ppm chlorine dioxide) in the treatment solution before experimental runs commenced.
For the curtain application, a rain gutter was modified to serve as a trough for the fluid to fill into. The front wall of the trough was modified; it was slightly shorter and was rounded to achieve laminar or predominantly laminar flow of the fluid over the wall of the trough and down over the target belt (belt to be used for moving eggs or other products to be treated with the treatment solution). The trough also contained pieces of plastics filter media (a type of baffle) that converted the turbulent flow of the trough being filled to more homogenous, laminar flow allowing a sheer curtain or waterfall effect to be achieved consistently across the entire length of the trough, such that the curtain fell onto the target belt. […] The curtain was about 11″ in height and approximately 2-2.5 feet wide.
(§3) Each application method was tested in multiple runs in which the liquid chlorine dioxide treatment solution was maintained at a particular target temperature (approximately 120° F. (this is the high temperature curtain or spray as referred to in Table 3) or a temperature of 60-75° F. (this is the low temperature curtain or spray as referred to in Table 3)).
(§4) For the curtain application method, the fluid was sampled at four locations: (A) from the hose that delivered treatment solution into the trough, (B) where the fluid entered the trough (C) within the trough near the exit where fluid flowed out of the trough to form the curtain, (D) where the fluid of the curtain fell onto the belt. For the spray application, the fluid was sampled at three locations: (A) from the hose that delivered treatment solution into the sprayer nozzle, (B) from the fluid as it exited the sprayer nozzle, (C) where the fluid of the spray fell onto the belt.
(§5) Chlorine dioxide concentrations were determined using the Palintest ChlordioX Plus device in accordance with the manufacturer's instructions.

[2] = Chlorine dioxide retention in liquid treatment solution, low-pressure spray application method; assay type: physicochemical; conditions: for Average ClO2 loss in ppm (±STDEV): location A minus location C; for Average ClO2 concentration in ppm (±STDEV): spray, ambient 65-70 °F
From the text: as §1, §2
For the spray application, a series of nozzles were used to apply the treatment solution.
as §3, §4, §5

[O][Cl+][O-] [ClO2, chlorine dioxide]
Average ClO2 loss in ppm (±STDEV) ([1]; Curtain with high temperature (approximately 120 °F)): 1.95 ± 0.58 ppm
Average ClO2 loss in ppm (±STDEV) ([1]; Curtain with low temperature (60-75 °F)): 1.37 ± 0.27 ppm
Average ClO2 concentration in ppm (±STDEV) ([1]; treatment fluid 65-75 °F, location A (hose delivering treatment solution into trough)): 4.88 ± 0.87 ppm
Average ClO2 concentration in ppm (±STDEV) ([1]; treatment fluid 65-75 °F, location B (where fluid entered the trough)): 4.91 ± 0.83 ppm
Average ClO2 concentration in ppm (±STDEV) ([1]; treatment fluid 65-75 °F, location C (within trough near the exit)): 4.39 ± 0.79 ppm
Average ClO2 concentration in ppm (±STDEV) ([1]; treatment fluid 65-75 °F, location D (where curtain fell onto the belt)): 3.51 ± 0.68 ppm
Average ClO2 concentration in ppm (±STDEV) ([1]; treatment fluid 110-120 °F, location A (hose delivering treatment solution into trough)): 5.28 ± 0.59 ppm
Average ClO2 concentration in ppm (±STDEV) ([1]; treatment fluid 110-120 °F, location B (where fluid entered the trough)): 4.70 ± 0.28 ppm
Average ClO2 concentration in ppm (±STDEV) ([1]; treatment fluid 110-120 °F, location C (within trough near the exit)): 4.51 ± 0.52 ppm
Average ClO2 concentration in ppm (±STDEV) ([1]; treatment fluid 110-120 °F, location D (where curtain fell onto the belt)): 3.34 ± 0.58 ppm
Average ClO2 loss in ppm (±STDEV) ([2]; Spray with high temperature (approximately 120 °F)): 3.24 ± 0.67 ppm
Average ClO2 loss in ppm (±STDEV) ([2]; Spray with low temperature (60-75 °F)): 1.44 ± 0.38 ppm
Average ClO2 concentration in ppm (±STDEV) ([2]; treatment fluid 60-70 °F, location A (hose delivering treatment solution into sprayer nozzle)): 4.86 ± 0.54 ppm
Average ClO2 concentration in ppm (±STDEV) ([2]; treatment fluid 60-70 °F, location B (fluid as it exited the sprayer nozzle)): 4.34 ± 0.71 ppm
Average ClO2 concentration in ppm (±STDEV) ([2]; treatment fluid 60-70 °F, location C (where spray fell onto the belt)): 3.43 ± 0.61 ppm
Average ClO2 concentration in ppm (±STDEV) ([2]; treatment fluid 110-120 °F, location A (hose delivering treatment solution into sprayer nozzle)): 5.28 ± 0.58 ppm
Average ClO2 concentration in ppm (±STDEV) ([2]; treatment fluid 110-120 °F, location B (fluid as it exited the sprayer nozzle)): 3.57 ± 0.53 ppm
Average ClO2 concentration in ppm (±STDEV) ([2]; treatment fluid 110-120 °F, location C (where spray fell onto the belt)): 2.04 ± 0.45 ppm

Source: US12194177B2, “Systems and methods for delivering chlorine dioxide using a liquid curtain” (Sabre IP Acquistionco, LLC, priority 2019, dated 2025)
